# Assay results from US9708314B2, “Heterocyclic amide compound” (NISSAN CHEMICAL INDUSTRIES, LTD., priority 2013, dated 2017).
# Columns and labels:
# Assay type in all cases: in vivo
# [1] = system: directly sowed Oryza sativa; assay: Test Example 4: effect on crop by application to foliage (diluvial soil, plastic box); settings: application to foliage; for effect on crop, d (directly sowed Oryza sativa): 320 g/ha
# Excerpt: (§1) 5 Herbicidal ratio of 90% or more (almost completely withered) 4 Herbicidal ratio of 70% or more and less than 90% 3 Herbicidal ratio of 40% or more and less than 70% 2 Herbicidal ratio of 20% or more and less than 40% 1 Herbicidal ratio of 5% or more and less than 20% 0 Herbicidal ratio of 5% or less (almost no effect) [Test Example 4] Herbicidal Effect Test by Application to Foliage Sterilized diluvial soil was placed in a plastic box having a length of 21 cm, a width of 13 cm, and a depth of 7 cm. Each of the seeds of Digitaria ciliaris, Setaria viridis, Echinochloa crus-galli var. crus-galli, Avena fatua, Alopecurus myosuroides, Lolium multiflorum Lam., Apera spica-venti., Abutilon theophrasti, Amaranthus retroflexus, Chenopodium album, Stellaria media, Galium spurium, Veronica persica, Zea mays, Glycine max, Oryza sativa, Triticum aestivum, Beta vulgaris ssp. vulgaris, and Brassica campestris L. was sowed in a spot-like manner and was covered with the soil of about 1.5 cm thick. Thereafter, the plants were grown in the greenhouse of 25° C. to 30° C. After the plants were grown for 14 days, the emulsion agent containing the compound of the present invention prepared in accordance with Formulation Example 2 was diluted with water so as to be a predetermined herbicide amount and the diluted compound was uniformly applied to a stem and leaf part with a small-size spray. Three weeks after the herbicide application, effects on each plant were investigated in accordance with the criteria of Test Example 1. A: Echinochloa oryzicola Vasing., B: Scirpus juncoides, C: Monochoria vaginalis, D: Leptochloa chinensis, E: Cyperus difformis, F: Digitaria ciliaris, G: Setaria viridis, H: Echinochloa crus-galli var. crus-galli, I: Avena fatua, J: Alopecurus myosuroides, K: Lolium multiflorum Lam., L: Apera spica-venti., M: Abutilon theophrasti, N: Amaranthus retroflexus, O: Chenopodium album, P: Stellaria media, Q: Galium spurium, R: Veronica persica, a: transplanted Oryza sativa, b: directly sowed Oryza sativa, c: Zea mays, d: Glycine max, e: Triticum aestivum, f: Beta vulgaris ssp. vulgaris, and g: Brassica campestris L. The application herbicide amount (g/ha) means an amount that a concentration is adjusted so that, when an application amount is converted into per hectare (1 ha), the herbicide is applied by the number of grams (g) of the described value.
# [2] = system: Zea mays; assay: as above; settings: application to foliage; for effect on crop, b (Zea mays): 320 g/ha
# Excerpt: as §1
# [3] = system: Triticum aestivum; assay: as above; settings: application to foliage; for effect on crop, e (Triticum aestivum): 320 g/ha
# Excerpt: as §1
# [4] = system: Brassica campestris L.; assay: as above; settings: application to foliage; for effect on crop, g (Brassica campestris L.): 320 g/ha
# Excerpt: as §1
# [5] = system: Beta vulgaris ssp. vulgaris; assay: as above; settings: application to foliage; for effect on crop, f (Beta vulgaris ssp. vulgaris): 320 g/ha
# Excerpt: as §1
# [6] = system: Glycine max; assay: as above; settings: application to foliage; for effect on crop, c (Glycine max): 320 g/ha
# Excerpt: as §1
# [7] = system: Galium spurium; assay: Test Example 4: herbicidal effect by application to foliage (diluvial soil, plastic box); settings: application to foliage; for herbicidal effect, Q (Galium spurium): 320 g/ha
# Excerpt: as §1
# [8] = system: Amaranthus retroflexus; assay: as above; settings: application to foliage; for herbicidal effect, N (Amaranthus retroflexus): 320 g/ha
# Excerpt: as §1
# [9] = system: Apera spica-venti.; assay: as above; settings: application to foliage; for herbicidal effect, L (Apera spica-venti.): 320 g/ha
# Excerpt: as §1
# [10] = system: Alopecurus myosuroides; assay: as above; settings: application to foliage; for herbicidal effect, J (Alopecurus myosuroides): 320 g/ha
# Excerpt: as §1
# [11] = system: Setaria viridis; assay: as above; settings: application to foliage; for herbicidal effect, G (Setaria viridis): 320 g/ha
# Excerpt: as §1
# [12] = system: Stellaria media; assay: as above; settings: application to foliage; for herbicidal effect, P (Stellaria media): 320 g/ha
# Excerpt: as §1
# [13] = system: Abutilon theophrasti; assay: as above; settings: application to foliage; for herbicidal effect, M (Abutilon theophrasti): 320 g/ha
# Excerpt: as §1
# [14] = system: Chenopodium album; assay: as above; settings: application to foliage; for herbicidal effect, O (Chenopodium album): 320 g/ha
# Excerpt: as §1
# [15] = system: Veronica persica; assay: as above; settings: application to foliage; for herbicidal effect, R (Veronica persica): 320 g/ha
# Excerpt: as §1
# [16] = system: Avena fatua; assay: as above; settings: application to foliage; for herbicidal effect, I (Avena fatua): 320 g/ha
# Excerpt: as §1
# [17] = system: Digitaria ciliaris; assay: as above; settings: application to foliage; for herbicidal effect, F (Digitaria ciliaris): 320 g/ha
# Excerpt: as §1
# [18] = system: Echinochloa crus-galli var. crus-galli; assay: as above; settings: application to foliage; for herbicidal effect, H (Echinochloa crus-galli var. crus-galli): 320 g/ha
# Excerpt: as §1
# [19] = system: Lolium multiflorum Lam.; assay: as above; settings: application to foliage; for herbicidal effect, K (Lolium multiflorum Lam.): 320 g/ha
# Excerpt: as §1
# [20] = application herbicide amount 320 g/ha
Compound,"effect on crop, d (directly sowed Oryza sativa) [1]","effect on crop, b (Zea mays) [2]","effect on crop, e (Triticum aestivum) [3]","effect on crop, g (Brassica campestris L.) [4]","effect on crop, f (Beta vulgaris ssp. vulgaris) [5]","effect on crop, c (Glycine max) [6]","herbicidal effect, Q (Galium spurium) [7]","herbicidal effect, N (Amaranthus retroflexus) [8]","herbicidal effect, L (Apera spica-venti.) [9]","herbicidal effect, J (Alopecurus myosuroides) [10]","herbicidal effect, G (Setaria viridis) [11]","herbicidal effect, P (Stellaria media) [12]","herbicidal effect, M (Abutilon theophrasti) [13]","herbicidal effect, O (Chenopodium album) [14]","herbicidal effect, R (Veronica persica) [15]","herbicidal effect, I (Avena fatua) [16]","herbicidal effect, F (Digitaria ciliaris) [17]","herbicidal effect, H (Echinochloa crus-galli var. crus-galli) [18]","herbicidal effect, K (Lolium multiflorum Lam.) [19]",further results
CC(C)c1nnc2c(C(=O)Nc3nnnn3C)cc(C(F)(F)F)cn12 [2-018],–,–,–,–,–,–,–,–,–,–,–,–,–,–,–,–,–,–,–,"b: effect on crop, directly sowed Oryza sativa [1, 20]: 0 (Herbicidal ratio of 5% or less (almost no effect)); c: effect on crop, Zea mays [2, 20]: 0 (Herbicidal ratio of 5% or less (almost no effect)); e: effect on crop, Triticum aestivum [3, 20]: 0 (Herbicidal ratio of 5% or less (almost no effect)); g: effect on crop, Brassica campestris L. [4, 20]: 0 (Herbicidal ratio of 5% or less (almost no effect)); f: effect on crop, Beta vulgaris ssp. vulgaris [5, 20]: 1 (Herbicidal ratio of 5% or more and less than 20%); d: effect on crop, Glycine max [6, 20]: 0 (Herbicidal ratio of 5% or less (almost no effect)); Q: herbicidal effect on Galium spurium [7, 20]: 1 (Herbicidal ratio of 5% or more and less than 20%); N: herbicidal effect on Amaranthus retroflexus [8, 20]: 3 (Herbicidal ratio of 40% or more and less than 70%); L: herbicidal effect on Apera spica-venti. [9, 20]: 0 (Herbicidal ratio of 5% or less (almost no effect)); J: herbicidal effect on Alopecurus myosuroides [10, 20]: 0 (Herbicidal ratio of 5% or less (almost no effect)); G: herbicidal effect on Setaria viridis [11, 20]: 1 (Herbicidal ratio of 5% or more and less than 20%); P: herbicidal effect on Stellaria media [12, 20]: 0 (Herbicidal ratio of 5% or less (almost no effect)); M: herbicidal effect on Abutilon theophrasti [13, 20]: 3 (Herbicidal ratio of 40% or more and less than 70%); O: herbicidal effect on Chenopodium album [14, 20]: 3 (Herbicidal ratio of 40% or more and less than 70%); R: herbicidal effect on Veronica persica [15, 20]: 2 (Herbicidal ratio of 20% or more and less than 40%); I: herbicidal effect on Avena fatua [16, 20]: 0 (Herbicidal ratio of 5% or less (almost no effect)); F: herbicidal effect on Digitaria ciliaris [17, 20]: 2 (Herbicidal ratio of 20% or more and less than 40%); H: herbicidal effect on Echinochloa crus-galli var. crus-galli [18, 20]: 1 (Herbicidal ratio of 5% or more and less than 20%); K: herbicidal effect on Lolium multiflorum Lam. [19, 20]: 0 (Herbicidal ratio of 5% or less (almost no effect))"
Cc1nnc(NC(=O)c2ccc(C(F)(F)F)n3c(=O)n(C(C)C)nc23)o1 [6-005],0 (Herbicidal ratio of 5% or less (almost no effect)),0 (Herbicidal ratio of 5% or less (almost no effect)),0 (Herbicidal ratio of 5% or less (almost no effect)),0 (Herbicidal ratio of 5% or less (almost no effect)),1 (Herbicidal ratio of 5% or more and less than 20%),0 (Herbicidal ratio of 5% or less (almost no effect)),1 (Herbicidal ratio of 5% or more and less than 20%),3 (Herbicidal ratio of 40% or more and less than 70%),1 (Herbicidal ratio of 5% or more and less than 20%),1 (Herbicidal ratio of 5% or more and less than 20%),1 (Herbicidal ratio of 5% or more and less than 20%),1 (Herbicidal ratio of 5% or more and less than 20%),4 (Herbicidal ratio of 70% or more and less than 90%),3 (Herbicidal ratio of 40% or more and less than 70%),1 (Herbicidal ratio of 5% or more and less than 20%),0 (Herbicidal ratio of 5% or less (almost no effect)),3 (Herbicidal ratio of 40% or more and less than 70%),3 (Herbicidal ratio of 40% or more and less than 70%),1 (Herbicidal ratio of 5% or more and less than 20%),–
Cc1nnc(NC(=O)c2ccc(C(F)(F)F)n3c(=O)n(Cc4ccccc4)nc23)o1 [6-006],0 (Herbicidal ratio of 5% or less (almost no effect)),0 (Herbicidal ratio of 5% or less (almost no effect)),0 (Herbicidal ratio of 5% or less (almost no effect)),0 (Herbicidal ratio of 5% or less (almost no effect)),0 (Herbicidal ratio of 5% or less (almost no effect)),0 (Herbicidal ratio of 5% or less (almost no effect)),0 (Herbicidal ratio of 5% or less (almost no effect)),0 (Herbicidal ratio of 5% or less (almost no effect)),0 (Herbicidal ratio of 5% or less (almost no effect)),0 (Herbicidal ratio of 5% or less (almost no effect)),0 (Herbicidal ratio of 5% or less (almost no effect)),1 (Herbicidal ratio of 5% or more and less than 20%),1 (Herbicidal ratio of 5% or more and less than 20%),3 (Herbicidal ratio of 40% or more and less than 70%),1 (Herbicidal ratio of 5% or more and less than 20%),0 (Herbicidal ratio of 5% or less (almost no effect)),0 (Herbicidal ratio of 5% or less (almost no effect)),0 (Herbicidal ratio of 5% or less (almost no effect)),0 (Herbicidal ratio of 5% or less (almost no effect)),–
CCn1nc2c(C(=O)Nc3ncnn3C)ccc(C(F)(F)F)n2c1=O [6-007],2 (Herbicidal ratio of 20% or more and less than 40%),0 (Herbicidal ratio of 5% or less (almost no effect)),0 (Herbicidal ratio of 5% or less (almost no effect)),0 (Herbicidal ratio of 5% or less (almost no effect)),3 (Herbicidal ratio of 40% or more and less than 70%),0 (Herbicidal ratio of 5% or less (almost no effect)),0 (Herbicidal ratio of 5% or less (almost no effect)),3 (Herbicidal ratio of 40% or more and less than 70%),0 (Herbicidal ratio of 5% or less (almost no effect)),0 (Herbicidal ratio of 5% or less (almost no effect)),0 (Herbicidal ratio of 5% or less (almost no effect)),0 (Herbicidal ratio of 5% or less (almost no effect)),2 (Herbicidal ratio of 20% or more and less than 40%),3 (Herbicidal ratio of 40% or more and less than 70%),0 (Herbicidal ratio of 5% or less (almost no effect)),0 (Herbicidal ratio of 5% or less (almost no effect)),0 (Herbicidal ratio of 5% or less (almost no effect)),0 (Herbicidal ratio of 5% or less (almost no effect)),0 (Herbicidal ratio of 5% or less (almost no effect)),–
